Results: the NIST ThermoML archive (doi:10.1016/j.jct.2015.01.012)
Values joined by “and” are separate entries in the source; they are usually repeats but may differ in a detail not shown here. Equal entries are not always repeated.

Conditions: Crystal, Calculated from knudsen effusion weight loss

CCn1c(-c2ccccc2)cc2ccccc21 [1-ethyl-2-phenylindole]
Conditions	vapor or sublimation pressure
327.18 K	7.2e-05 kPa and 6.9e-05 kPa and 7.1e-05 kPa
329.18 K	9.5e-05 kPa and 9.1e-05 kPa and 8.9e-05 kPa
331.09 K	0.000115 kPa and 0.000114 kPa and 0.000119 kPa
333.18 K	0.000144 kPa and 0.000143 kPa and 0.000145 kPa
335.18 K	0.00019 kPa and 0.000184 kPa and 0.000192 kPa
337.19 K	0.000239 kPa and 0.00024 kPa
339.17 K	0.000291 kPa and 0.000287 kPa and 0.000307 kPa
341.17 K	0.000379 kPa and 0.000368 kPa and 0.000387 kPa
343.08 K	0.000472 kPa and 0.000478 kPa
345.16 K	0.000624 kPa and 0.000605 kPa and 0.000625 kPa
347.08 K	0.000779 kPa and 0.000766 kPa and 0.000775 kPa
349.08 K	0.000974 kPa and 0.000987 kPa and 0.000986 kPa

Cn1c(-c2ccccc2)cc2ccccc21 [1-methyl-2-phenylindole]
Conditions	vapor or sublimation pressure
331.17 K	7.4e-05 kPa and 7.7e-05 kPa
333.17 K	0.000104 kPa and 0.000102 kPa and 9.9e-05 kPa
335.1 K	0.00013 kPa and 0.000126 kPa and 0.000128 kPa
337.18 K	0.000157 kPa and 0.000154 kPa and 0.000158 kPa
339.21 K	0.000204 kPa and 0.000197 kPa and 0.000214 kPa
341.12 K	0.000252 kPa and 0.000254 kPa and 0.000251 kPa
343.17 K	0.000316 kPa and 0.000308 kPa and 0.000323 kPa
345.14 K	0.000404 kPa and 0.00039 kPa and 0.000414 kPa
347.08 K	0.000497 kPa and 0.000501 kPa and 0.000494 kPa
349.17 K	0.000593 kPa and 0.000586 kPa and 0.000585 kPa
351.21 K	0.000772 kPa and 0.000745 kPa
353.12 K	0.00092 kPa and 0.000943 kPa and 0.000939 kPa

c1ccc(-c2cc3ccccc3[nH]2)cc1 [2-phenyl-1H-indole]
Conditions	vapor or sublimation pressure
360.16 K	0.000122 kPa and 0.000119 kPa and 0.000116 kPa
362.11 K	0.000157 kPa and 0.000149 kPa and 0.000155 kPa
364.08 K	0.000184 kPa and 0.000182 kPa and 0.000176 kPa
366.16 K	0.000217 kPa and 0.000214 kPa and 0.000227 kPa
368.13 K	0.00027 kPa and 0.000262 kPa and 0.000278 kPa
370.1 K	0.000331 kPa and 0.000325 kPa and 0.000324 kPa
372.16 K	0.000392 kPa and 0.000393 kPa and 0.000412 kPa
374.12 K	0.000491 kPa and 0.000456 kPa and 0.0005 kPa
376.1 K	0.00059 kPa and 0.000574 kPa and 0.000592 kPa
378.15 K	0.000701 kPa and 0.000693 kPa and 0.000735 kPa
380.12 K	0.000868 kPa and 0.000885 kPa and 0.000832 kPa
382.1 K	0.001023 kPa and 0.001052 kPa and 0.001046 kPa
